From patent US10668056B2, “Pharmaceutical composition comprising indole derivatives, process for preparation and use thereof” (VIVOLUX AB, priority 2015, dated 2020)

Columns and labels:
HCT116 (Colon carcinoma) = assay: FMCA cytotoxicity, HCT116; assay type: cell-based, human; settings: Homo sapiens, HCT-116, 72 h
Experimental: (§1) The inventors also set out to characterize activity of the compounds A, B and C in cell lines representing cancer of different origin. The specific assays used and the conclusions from the mechanistic evaluation have previously been described in detail (Zhang et al. 2014). Compounds A, B and C (See FIG. 4) were evaluated for cytotoxicity expressed as survival index (SI) in six human tumor cell lines using the cell based fluorometric micro culture cytotoxicity assay (FMCA) as previously described in detail (Lindhagen et al, 2008). The method is based on measurement of fluorescent fluorescein, generated from hydrolysis of FDA by viable cells with intact plasma membrane. The fluorescence is proportional to the number of intact viable cells.
(§2) The cell lines were cultivated in the respective cell medium recommended by the provider. The medium was supplemented with 10% heat-inactivated fetal bovine serum, 2 mmol/L L-glutamine, 100 μg/mL streptomycin and 100 U/mL penicillin (all from Sigma-Aldrich). The cell line was cultured at 37° C. in a humidified atmosphere containing 5% CO2.
(§3) FMCA analysis in brief, 2500 cells per well were seeded into 384-well microplates and incubated over night before treatment with compounds. Compounds were added using acoustic liquid transfer (Echo 550, LabCyte). The plates were incubated at 37° C. for 72 h, and then washed and FDA was added to the wells followed by 50 min of incubation at 37° C. The fluorescence, which is proportional to the number of living cells in each well, was measured at 485/520 nm in a Fluoroskan instrument (Labsystems, GMI, Ramsey, Minn.). Cell survival is presented as Survival Index (SI), defined as the fluorescence value in the compound-treated wells analysed as percentage of the value in the control wells, with blank values subtracted. Quality criteria included a signal/blank ratio >10 and a coefficient of variation (CV) in control and blank wells <30%. Graph Pad Prism (San Diego, Calif., USA). All experiments were performed twice, and each concentration was evaluated in quadruplicates in each experiment. […]

RKO (Colon carcinoma) = assay: FMCA cytotoxicity, RKO; assay type: cell-based, human; settings: Homo sapiens, 72 h
Experimental: as §1, §2, §3

[1] = test system: HeLa (Cervix Adenocarcinoma); assay: FMCA cytotoxicity, HeLa; assay type: cell-based, human; settings: Homo sapiens, 72 h
Experimental: as §1, §2, §3

[2] = test system: HepG2 (Hepatocellular Carcinoma); assay: FMCA cytotoxicity, HepG2; assay type: cell-based, human; settings: Homo sapiens, 72 h
Experimental: as §1, §2, §3

[3] = test system: CCRF-CEM (Acute lymphoblastic leukemia); assay: FMCA cytotoxicity, CCRF-CEM; assay type: cell-based, human; settings: Homo sapiens, 72 h
Experimental: as §1, §2, §3

[4] = test system: THP-1 (Acute Monocytic Leukemia); assay: FMCA cytotoxicity, THP-1; assay type: cell-based, human; settings: Homo sapiens, 72 h
Experimental: as §1, §2, §3

[5] = test system: six human tumor cell lines; assay: FMCA cytotoxicity, six human tumor cell lines (overall); assay type: cell-based; settings: Table 6 and FIG. 4
Experimental: as §1, §2, §3

For `Cc1cccc2c1[nH]c1nc(NN=C(CC(C)(C)C)c3ccccn3)nnc12` [Compound C, 2-(3,3-dimethyl-N-{6-methyl-5H-[1,2,4]triazino[5,6-b]indole-3-yl}butanehydrazonoyl)pyridine], the IC50 (HCT116 (Colon carcinoma)) was ~1000 nM, the IC50 (RKO (Colon carcinoma)) was < 250 nM and the IC50 [1] was ~10000 nM. The IC50 [2] was < 250 nM, the IC50 [3] was < 250 nM and the IC50 [4] was < 250 nM. The “activity on cancer cell lines” value [5] was “strong activity”.
